Assay results published in patent US20040265880A1, “Genomic and proteomic approaches for the development of cell culture medium” (Sigma-Aldrich Co., priority 2003, published 2004).
Entries after “also recorded” stand apart in the source; their conditions may differ.

Assays:
HEK-293 cells = experiment: Resazurin high throughput proliferation assay, HEK-293; type: cell-based, human; conditions: for effect on HEK-293 proliferation (RFU, resazurin): versus base medium with 1% FBS, each ligand at three concentrations
Procedure: Resazurin is a metabolic dye which is converted to a fluorescent product. The greater the amount of the fluorescent product that is generated, the more metabolism, which directly correlates with cell number.
In this assay, resazurin was added to HEK-293 cells plated in each well of a 24-well assay plate containing a test medium containing one of the 16 ligands corresponding to the positive growth factors/cytokines and incubated at 37° C. After a 30 minute incubation, the plate was analyzed on a standard fluorescence plate reader. A higher RFU value from the plate reader translates to a higher cell density in the wells.
Briefly, the 16 ligands corresponding to positive growth factor/cytokine receptors were tested in the resazurin assay, each ligand at three different concentrations. The graphical representations of the RFU values observed for each factor, shown in FIGS. 3 and 4, include the base medium (with 1% FBS) shown as the pink line. The other 3 lines on each graph represent the three (3) concentrations of growth factor tested in the assay. […] Finally, some factors had no effect on the proliferation of the HEK-293 culture (FIG. 3A-3D).
(§1) Cells were plated in each well of a 24-well tissue culture treated plate containing 1 ml of a base medium. The base medium contained the lowest amount of FBS required to maintain approximately half-maximal growth of the given cell type. Test conditions were performed in triplicate, with each test compound added to the base medium at three different concentrations. The cells were allowed to grow until they reached approximately 33% confluent. At this point, 100 μl of the resazurin solution from a resazurin based in vitro toxicology kit (Sigma-Aldrich Co., Product No. TOX-8) was added to each well. After sufficient incubation time to convert some of the resazurin, the fluorescence was measured on a HTS 7000 Plus BioAssay Reader (Perkin-Elmer, Boston, Mass.). Readings were taken once a day until the culture was confluent (typically about 4 days). A plate with base medium only (no cells) was used as a blank and subtracted from the RFU reading to establish the final RFU values.

WI-38 cells = experiment: Proliferation assay (resazurin), WI-38; type: cell-based, human; conditions: single factor added to base medium
Description: In order to test the possibility of using the method as applied to HEK-293 cells to identify pathways in other cell lines, the normal human fibroblast, WI-38 was chosen. These cells are typically grown in a base medium containing anywhere from 3-10% FBS.
Of the initial 17 receptors gleaned from the microarray, 12 ligands were chosen for testing. These ligands were chosen in the same way as the ligands for the HEK-293 cells, based on signal versus controls as well as based on knowledge of the various factors.
Signaling within a cell for increased growth can be stimulated in a variety of different ways. Combinations of the 4 chosen factors as listed above we added to cell culture medium to determine if the addition of more than 1 of the positive ligands would produce an increased amount of proliferation, or if the ligands would all stimulate the same downstream pathways, leading to no added benefit. This method allowed for the formulation of cell culture medium that it had not been possible to formulate prior to these assays.
as §1

CHO-AP cells [1] = experiment: Proliferation assay, CHO-AP; type: cell-based, Chinese hamster; conditions: suspension culture in serum-free CHO medium
Procedure: (§2) In order to further test the possibility of using the method as applied to HEK-293 cells to identify pathways in other cell lines, Chinese hamster ovary (CHO) cells were run on a microarray. Cells from the CHO-AP line produce alkaline phosphatase (AP). These cells are grown in a suspension culture in a serum-free CHO medium (Sigma-Aldrich Co., Product No. C5467).
Although the cDNA array from Takara is designed with human sequences, the array was probed using cDNA made from mRNA from the CHO cells. This attempt generated 22 positive receptors, of which 16 were tested (Table 6).
as §1, with “The cells were allowed to grow until they reached approximately 33% confluent. At this point, 100 μl of the resazurin solution from a resazurin based in vitro toxicology kit (Sigma-Aldrich Co., Product No. TOX-8) was added to each well.” left out

CHO-AP cells [2] = experiment: Alkaline phosphatase production assay, CHO-AP; type: cell-based, Chinese hamster; conditions: suspension culture in serum-free CHO medium
Procedure: as §2
On day 7 of the assay, the contents of each well were collected into 1.5 ml microfuge tubes. The cell suspensions were centrifuged at 16,000 rpm for five minutes. The supernatants were collected in 2 ml cryovials and the cell pellets were discarded. Each supernatant was diluted 1:10 and then assayed for the presence of Alkaline Phosphatase using the Alkaline Phosphatase Reporter Gene Assay Kit, Fluorescence (Product AP-F).

Row | Compound | effect on HEK-293 proliferation (RFU, resazurin) (HEK-293 cells) | effect on proliferation of WI-38 cells (RFU) (WI-38 cells) | also measured
1 | basic fibroblast growth factor [bFGF] | significant effect | significant increased proliferation | effect on proliferation of WI-38 cells (RFU) (WI-38 cells; listed as basic fibroblast growth factor): positive effects
2 | interleukin-1 [IL-1] |  | significant increased proliferation | effect on proliferation of CHO-AP cells (CHO-AP cells [1]): positive effects; productivity of alkaline phosphatase by CHO-AP cells (CHO-AP cells [2]): increased the productivity; also recorded: positive effects; effect on proliferation of WI-38 cells (RFU) (WI-38 cells; listed as interleukin-1): positive effects
3 | platelet-derived growth factor [PDGF] |  | significant increased proliferation | effect on proliferation of WI-38 cells (RFU) (WI-38 cells; listed as platelet-derived growth factor AB): positive effects
4 | CCCCC/C=C\C/C=C\C/C=C\C/C=C\CCCC(=O)O [arachidonic acid, reference compound] |  |  | effect on proliferation of HEK-293 cells (PKC pathway stimulation, Example 4) (HEK-293 cells; FIG. 10): positive effect
5 | stromal cell-derived factor 1a [SDF1α] | significant effect | significant increased proliferation | effect on proliferation of WI-38 cells (RFU) (WI-38 cells; listed as stromal cell-derived factor 1 a): positive effects
6 | epidermal growth factor [EGF, growth factor, ligand of EGF receptor] | significant effect |  | 
